Laboratory results: publication PMC6274529, “Flavonoids-Rich Orthosiphon stamineus Extract as New Candidate for Angiotensin I-Converting Enzyme Inhibition: A Molecular Docking Study” (Molecules, 2016)
Where “and” joins values, the source holds several entries; their conditions need not be identical. Equal entries are not always repeated. Where two headings read alike, the source gives them in different places.

Tests used:
[1] = target: T1, ACE enzyme (from rabbit lung) (Oryctolagus cuniculus, UniProt P12822); assay: In vitro ACE inhibition activity (HA formation from HHL, HPLC-UV)
T1 sequence (P12822 34-1310): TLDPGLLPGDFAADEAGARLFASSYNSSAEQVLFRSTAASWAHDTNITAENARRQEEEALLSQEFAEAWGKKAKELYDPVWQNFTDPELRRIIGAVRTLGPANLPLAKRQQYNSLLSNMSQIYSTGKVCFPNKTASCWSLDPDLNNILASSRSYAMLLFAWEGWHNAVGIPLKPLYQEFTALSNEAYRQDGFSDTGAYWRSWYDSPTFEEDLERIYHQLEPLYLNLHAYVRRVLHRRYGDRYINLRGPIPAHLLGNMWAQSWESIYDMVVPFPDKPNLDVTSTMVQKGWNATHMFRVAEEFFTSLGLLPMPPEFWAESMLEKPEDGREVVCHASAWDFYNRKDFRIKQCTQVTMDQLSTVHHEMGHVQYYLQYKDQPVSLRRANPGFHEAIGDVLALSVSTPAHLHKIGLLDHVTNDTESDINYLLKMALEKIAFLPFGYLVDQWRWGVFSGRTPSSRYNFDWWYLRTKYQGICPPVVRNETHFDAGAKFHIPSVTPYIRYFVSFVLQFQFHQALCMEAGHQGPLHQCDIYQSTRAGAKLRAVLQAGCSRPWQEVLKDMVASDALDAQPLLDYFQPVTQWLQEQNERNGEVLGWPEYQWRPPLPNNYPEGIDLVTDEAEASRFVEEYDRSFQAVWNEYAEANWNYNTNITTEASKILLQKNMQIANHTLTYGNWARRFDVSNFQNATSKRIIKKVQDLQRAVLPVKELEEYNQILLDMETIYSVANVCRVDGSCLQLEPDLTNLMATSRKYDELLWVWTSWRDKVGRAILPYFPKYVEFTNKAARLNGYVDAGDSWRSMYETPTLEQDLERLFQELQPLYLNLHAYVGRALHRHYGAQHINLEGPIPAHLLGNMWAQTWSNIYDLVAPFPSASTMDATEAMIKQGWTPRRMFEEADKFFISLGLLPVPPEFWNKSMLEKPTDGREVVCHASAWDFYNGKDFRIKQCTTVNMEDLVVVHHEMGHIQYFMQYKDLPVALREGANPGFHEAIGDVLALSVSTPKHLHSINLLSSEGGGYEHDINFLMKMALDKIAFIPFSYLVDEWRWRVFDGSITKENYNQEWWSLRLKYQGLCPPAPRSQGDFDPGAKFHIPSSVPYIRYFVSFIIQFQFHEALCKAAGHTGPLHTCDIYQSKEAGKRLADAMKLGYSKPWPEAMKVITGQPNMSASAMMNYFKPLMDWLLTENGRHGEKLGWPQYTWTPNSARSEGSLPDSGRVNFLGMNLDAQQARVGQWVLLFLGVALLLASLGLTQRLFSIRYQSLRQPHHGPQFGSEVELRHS
Protocol: This method relies on determining hippuric acid (HA) formation from ACE-specific substrate hippuryl-histidyl-leucine (HHL) by the action of ACE enzyme, resulting in the removal of C-terminal dipeptide histidylleucine.
The high performance liquid chromatography (HPLC) was performed using an Agilent Technologies (Series 1200 infinity, Frankfurt, Germany) system. Separations were accomplished on a Zorbax Eclipse plus phenyl-hexyl (4.6 mm × 250 mm, 5 µm, Agilent) and the column temperature was maintained at 30 °C. Substrates of HA and HHL were detected at 228 nm. The flow rate was set at 0.6 mL/min and injection volume was 10 μL. The mobile phase consisted of 20% acetonitrile and 80% of 0.1% ammonium dihydrogen phosphate buffer was used in this analysis with 10 min separation time.
For substrate HHL hydrolysis catalyzed by purified rabbit ACE enzyme, the total reaction volume was 200 µL. Phosphate buffer (pH 8.3) was used to dilute the substrate HHL and rabbit lung ACE enzyme. […] The reaction mixtures were incubated for 2 h at 37 °C. The reaction was terminated by heating the samples at 100 °C in water bath, and then 800 µL of water was added to all samples, and they were analyzed by stated HPLC method.
HHL as substrate was prepared freshly in 10 mM phosphate buffer pH 8.3 and then sonicated for 30 min. […] Angiotensin converting enzyme (ACE) was prepared at 0.05 U/mL in phosphate buffer pH 8.3 containing 0.1% bovine serum albumin (BSA). Then, 50 µL of purified ACE enzyme and 20 µL extracts, reference compounds or captopril at different concentrations were added to 130 µL of HHL substrate. Control reaction mixture was contained 20 µL of 50% ethanol instead of extracts. All samples were incubated for 2 h at 37 °C. The reaction was stopped by heating the samples at 100 °C. All samples were analyzed by HPLC after adding 800 µL of water. ACE inhibition rate was calculated by the following equation: ACE inhibition activity of test substances (%) = [(HA concentration levels without test substances) − (HA concentration levels with test substances)/(HA concentration levels without test substances)] × 100 (3)

[2] = Chelation of zinc (II) ion by tetramethylmurexide reagent; type: physicochemical; details: hexamine/HCl buffer pH 5.0, mean ± SD
Protocol: Therefore, this extract was selected to study its chelation ability with zinc (II) ion. […]. Based on this standard curve, the amount of metal ions bound by the compound tested was evaluated. […].
Briefly, 0.01 M hexamine/HCl buffer was prepared at pH 5.0 with addition of 0.01 M KCl. Stock solution of captopril. […] A series of working sample solutions were prepared by diluting the stock solutions with hexamine/HCl buffer (0–5 mg/mL). ZnCl2 was prepared in the same buffer at concentration of 0.8 mM. Then, 1 mL of sample solutions was mixed with 1 mL ZnCl2 solution and 0.1 mL tetramethylmurexide at concentration of 1 mM. Absorbance was recorded at 462 nm and 530 nm and then the ratio of A462/A530 was calculated. Distilled deionized water was used instead of tetramethylmurexide reagent in control samples. A standard curve of absorbance ratio versus metal ions concentrations (0 to 3.2 mM) was prepared and the percentage of bound metal ions was calculated. Percentage of bond with Zn^2+ = 1 − (Concentration of free Zn^2+/Concentration of total Zn^2+) × 100(4)

| SMILES | IC50 [1] [µM] | IC50 ([1]; IC50 on in vitro ACE inhibitory assay, purified rabbit lung ACE, HHL substrate, 2 h at 37 °C, mean ± SD (n = 3)) | Zn (II) chelating activity (percentage of bound Zn (II)) ([2]; at concentration of 5 mg/mL) | Zn (II) chelating activity (percentage of bound Zn (II)) ([2]; at concentration of 4 mg/mL) |
| --- | --- | --- | --- | --- |
| O=C(/C=C/c1ccc(O)c(O)c1)O[C@H](Cc1ccc(O)c(O)c1)C(=O)O [RA, rosmarinic acid] | 52.2 |  |  |  |
| COc1ccc(-c2cc(=O)c3c(O)c(OC)c(OC)cc3o2)cc1O [EUP, eupatorin] |  | 44.6 µM and 44.7 µM | 56.03% ± 1.26% |  |
| C[C@H](CS)C(=O)N1CCC[C@H]1C(=O)O [Captopril, captopril] |  |  |  | 100% ± 1.59% |

The next lines start with results.

| IC50 [1] [µM] | IC50 ([1]; IC50 on in vitro ACE inhibitory assay, purified rabbit lung ACE, HHL substrate, 2 h at 37 °C, mean ± SD (n = 3)) | SMILES | Zn (II) chelating activity (percentage of bound Zn (II)) ([2]; at concentration of 5 mg/mL) | Zn (II) chelating activity (percentage of bound Zn (II)) ([2]; at concentration of 4 mg/mL) |
| --- | --- | --- | --- | --- |
| 77.9 |  | COc1ccc(-c2cc(=O)c3c(OC)c(OC)c(OC)cc3o2)cc1O [TMF, 3′-hydroxy-5,6,7,4′-tetramethoxyflavone] |  |  |
| 79.2 |  | COc1ccc(-c2cc(=O)c3c(OC)c(OC)c(OC)cc3o2)cc1OC [SIN, sinensetin] | 6.71% ± 0.62% |  |
